In one assay the target is human recombinant ATX (Homo sapiens, UniProt Q13822). Briefly: Autotaxin (ATX) activity Quanta Red assay. The format is biochemical. The conditions noted are these: Table 2: additional compounds tested for ATX activity (Quanta Red Assay); read-out: Activity. The procedure, abridged:
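Recombinant human ATX reaction stopped after 2 h with Quanta Red stop solution; fluorescence read at […]. Controls with DMSO, with and without ATX; IC50 in duplicate.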
On to `O=C(CCc1nc2cccnc2n1Cc1ccccc1)NCc1ccc(F)cc1` [Example 223, 3-(3-Benzyl-3H-imidazo[4,5-b]pyridin-2-yl)-N-(4-fluoro-benzyl)-propionamide], for which the IC50 was 324 nM.
For the compound `O=C(CCc1nc2cccnc2n1Cc1cccs1)NCc1ccccc1` [Example 226, N-Benzyl-3-(3-thiophen-2-ylmethyl-3H-imidazo[4,5-b]pyridin-2-yl)-propionamide], the IC50 came out at 807 nM.
On the same count and under the same terms, under `COc1ccc(Cn2c(CCC(=O)NCc3ccc(C)cc3)nc3cccnc32)cc1` [Example 220, 3-[3-(4-Methoxy-benzyl)-3H-imidazo[4,5-b]pyridin-2-yl]-N-(4-methyl-benzyl)-propionamide] stands 125 nM.

The same assay, now with this note: Table 3: commercially available compounds tested for Autotaxin activity (Quanta Red assay); read-out: Activity.
On to `COc1ccc(Cn2c(CCC(=O)NCc3ccccc3)nc3cccnc32)cc1` [Example 236, N-Benzyl-3-[3-(4-methoxy-benzyl)-3H-imidazo[4,5-b]pyridin-2-yl]-propionamide, reference compound], for which the IC50 worked out at 406 nM.
Turning to `COc1ccc(CNC(=O)CCc2nc3cccnc3n2Cc2ccccc2)cc1` [Example 238, 3-(3-Benzyl-3H-imidazo[4,5-b]pyridin-2-yl)-N-(4-methoxy-benzyl)-propionamide, reference compound], the IC50 was 473 nM.

Still in this assay, the particulars now being: human recombinant ATX 0.8 μg/mL, 2 hours at room temperature, IC50 determined in duplicate; read-out: Activity (ATX activity, Quanta Red assay; IC50).
With `O=C(CCc1nc2cccnc2n1Cc1ccccc1)NCc1cccs1` [Example 3, 3-(3-Benzyl-3H-imidazo[4,5-b]pyridin-2-yl)-N-thiophen-2-ylmethyl-propionamide], the IC50 was determined as 855 nM.

Staying with this assay, now noted: read-out: Activity (ATX activity, Quanta Red assay; IC50).
For `CC(C)(NC(=O)CCc1nc2ccncc2n1Cc1ccc(F)cc1)c1ccccc1` [Example 136, 3-[3-(4-Fluoro-benzyl)-3H-imidazo[4,5-c]pyridin-2-yl]-N-(1-methyl-1-phenyl-ethyl)-propionamide], the IC50 stood at 115 nM.
The same measure, in the same setting: to `C[C@@H]1CN(c2ccc([C@H](C)NC(=O)CCc3nc4cccnc4n3Cc3ccc(F)c(F)c3)cc2)CCN1` [Example 188, 3-[3-(3,4-Difluoro-benzyl)-3H-imidazo[4,5-b]pyridin-2-yl]-N-{(S)-1-[4-((R)-3-methyl-piperazin-1-yl)-phenyl]-ethyl}-propionamide] belongs 15 nM.
The same measure, in the same setting: to `O=C(CCc1nc2cccnc2n1Cc1ccc(OC(F)(F)F)cc1)N[C@H]1CCCc2ccccc21` [Example 38, N-(S)-1,2,3,4-Tetrahydro-naphthalen-1-yl-3-[3-(4-trifluoromethoxy-benzyl)-3H-imidazo[4,5-b]pyridin-2-yl]-propionamide] belongs 9 nM; to `O=C(CCc1nc2cccnc2n1Cc1ccc(OC(F)(F)F)cc1)NCc1ccc(F)cc1` [Example 30, N-(4-Fluoro-benzyl)-3-[3-(4-trifluoromethoxy-benzyl)-3H-imidazo[4,5-b]pyridin-2-yl]-propionamide], 5 nM.
Consider `C[C@H](NC(=O)CCc1nc2ccncc2n1Cc1ccc(OC(F)(F)F)cc1)c1ccc(N2CCN(C)CC2)cc1` [Example 125, N-{(S)-1-[4-(4-Methyl-piperazin-1-yl)-phenyl]-ethyl}-3-[3-(4-trifluoromethoxy-benzyl)-3H-imidazo[4,5-c]pyridin-2-yl]-propionamide], for which the IC50 turned out to be 9 nM.
Still for that read-out and setting: to `C[C@H](NC(=O)CSc1nc2cccnc2n1Cc1ccc(F)cc1)c1ccc(N2CCOCC2)cc1` [Example 147, 2-[3-(4-Fluoro-benzyl)-3H-imidazo[4,5-b]pyridin-2-ylsulfanyl]-N-[(S)-1-(4-morpholin-4-yl-phenyl)-ethyl]-acetamide] belongs 3 nM.
Same read-out and setting: under `O=C(CCc1nc2cccnc2n1Cc1ccc(C(F)(F)F)cc1)N[C@H](Cc1ccccc1)C(=O)O` [Example 196, (R)-3-Phenyl-2-{3-[3-(4-trifluoromethyl-benzyl)-3H-imidazo[4,5-b]pyridin-2-yl]-propionylamino}-propionic acid] stands 2 nM.
Regarding `COc1ccc(Cn2c(CCC(=O)N[C@H](C)c3ccccc3)nc3cccnc32)cc1` [Example 112, 3-[3-(4-Methoxy-benzyl)-3H-imidazo[4,5-b]pyridin-2-yl]-N-((R)-1-phenyl-ethyl)-propionamide], the IC50 worked out at 1060 nM.
The same measure, in the same setting: to `O=C(CCc1nc2ccncc2n1Cc1ccc(OC(F)(F)F)cc1)N[C@@H](CO)c1ccccc1` [Example 123, N-((R)-2-Hydroxy-1-phenyl-ethyl)-3-[3-(4-trifluoromethoxy-benzyl)-3H-imidazo[4,5-c]pyridin-2-yl]-propionamide] belongs 3 nM.
Regarding `COc1ccc(CNC(=O)CCc2nc3cc(C)cnc3n2Cc2ccc(OC(F)(F)F)cc2)cc1F` [Example 52, N-(3-Fluoro-4-methoxy-benzyl)-3-[6-methyl-3-(4-trifluoromethoxy-benzyl)-3H-imidazo[4,5-b]pyridin-2-yl]-propionamide], the IC50 turned out to be 29 nM.
On the same count and under the same terms, to `O=C(COc1nc2cccnc2n1Cc1ccc(OC(F)(F)F)cc1)N[C@@H](CO)c1ccccc1` [Example 151, N-((R)-2-Hydroxy-1-phenyl-ethyl)-2-[3-(4-trifluoromethoxy-benzyl)-3H-imidazo[4,5-b]pyridin-2-yloxy]-acetamide] belongs 3 nM.
On the same count and under the same terms, to `CC(C)COc1ccc(Cn2c(CCC(=O)N[C@@H](C)c3ccc(F)cc3)nc3cccnc32)cc1` [Example 156, N—[(S)-1-(4-fluoro-phenyl)-ethyl]-3-[3-(4-isobutoxy-benzyl)-3H-imidazo[4,5-b]pyridin-2-yl]-propionamide] belongs 704 nM.
The same measure, in the same setting: to `Cc1cnc2c(c1)nc(CCC(=O)N[C@@H](C)c1ccc(N[C@H]3CCNC3)cc1)n2Cc1ccc(OC(F)(F)F)cc1` [Example 189, 3-[6-Methyl-3-(4-trifluoromethoxy-benzyl)-3H-imidazo[4,5-b]pyridin-2-yl]-N-{(S)-1-[4-((S)-pyrrolidin-3-ylamino)-phenyl]-ethyl}-propionamide] belongs 16 nM; to `Cc1cnc2c(c1)nc(CCC(=O)NCc1ccc(OCCCN(C)C)cc1)n2Cc1ccc(OC(F)(F)F)cc1` [Example 26, N-[4-(3-Dimethylamino-propoxy)-benzyl]-3-[6-methyl-3-(4-trifluoromethoxy-benzyl)-3H-imidazo[4,5-b]pyridin-2-yl]-propionamide], 4 nM.
For `C[C@H](NC(=O)CCc1nc2cccnc2n1Cc1ccc(F)c(F)c1)c1ccc(Br)cc1` [Example 17, N-[(S)-1-(4-Bromo-phenyl)-ethyl]-3-[3-(3,4-difluoro-benzyl)-3H-imidazo[4,5-b]pyridin-2-yl]-propionamide], the IC50 is 3 nM.
Still for that read-out and setting: to `C[C@H](NC(=O)CCc1nc2cccnc2n1Cc1ccc(OC(F)(F)F)cc1)c1ccc(NC2CCN(C)CC2)cc1` [Example 173, N-{(S)-1-[4-(1-Methyl-piperidin-4-ylamino)-phenyl]-ethyl}-3-[3-(4-trifluoromethoxy-benzyl)-3H-imidazo[4,5-b]pyridin-2-yl]-propionamide] belongs 3 nM.
Same read-out and setting: under `O=C(CCc1nc2cccnc2n1Cc1ccc(F)c(F)c1)NCc1ccncc1` [Example 82, 3-[3-(3,4-Difluoro-benzyl)-3H-imidazo[4,5-b]pyridin-2-yl]-N-pyridin-4-ylmethyl-propionamide] stands 987 nM.
Still for that read-out and setting: to `C[C@H](NC(=O)CCc1nc2cccnc2n1Cc1ccc(F)c(F)c1)c1ccccc1` [Example 86, 3-[3-(3,4-Difluoro-benzyl)-3H-imidazo[4,5-b]pyridin-2-yl]-N-((S)-1-phenyl-ethyl)-propionamide] belongs 5 nM; to `C[C@H](NC(=O)CCc1nc2cccnc2n1Cc1cccs1)c1ccc(Cl)cc1` [Example 44, N-[(S)-1-(4-Chloro-phenyl)-ethyl]-3-(3-thiophen-2-ylmethyl-3H-imidazo[4,5-b]pyridin-2-yl)-propionamide], 12 nM; to `O=C(CCc1nc2cccnc2n1Cc1ccc(F)c(F)c1)NCc1ccc(OC(F)(F)F)cc1` [Example 57, 3-[3-(3,4-Difluoro-benzyl)-3H-imidazo[4,5-b]pyridin-2-yl]-N-(4-trifluoromethoxy-benzyl)-propionamide], 58 nM.
Regarding `O=C(CCc1nc2cccnc2n1Cc1ccc(F)cc1)NC(CO)c1ccc(F)cc1` (centres unmarked) [Example 47, 3-[3-(4-Fluoro-benzyl)-3H-imidazo[4,5-b]pyridin-2-yl]-N-[1-(4-fluoro-phenyl)-2-hydroxy-ethyl]-propionamide], the IC50 is 19 nM.
Same read-out and setting: under `O=C(CCc1nc2cccnc2n1Cc1ccc(F)cc1)N[C@H](CO)c1ccccc1` [Example 64, 3-[3-(4-Fluoro-benzyl)-3H-imidazo[4,5-b]pyridin-2-yl]-N-((S)-2-hydroxy-1-phenyl-ethyl)-propionamide] stands 144 nM.
The same measure, in the same setting: to `O=C(CCc1nc2cccnc2n1Cc1ccc(F)c(F)c1)NC[C@@H](O)c1ccccc1` [Example 65, 3-[3-(3,4-Difluoro-benzyl)-3H-imidazo[4,5-b]pyridin-2-yl]-N-((S)-2-hydroxy-2-phenyl-ethyl)-propionamide] belongs 155 nM; to `C[C@H](NC(=O)CCc1nc2cccnc2n1Cc1ccc(OC(F)(F)F)cc1)c1ccc(F)cc1` [Example 13, N-[(S)-1-(4-Fluoro-phenyl)-ethyl]-3-[3-(4-trifluoromethoxy-benzyl)-3H-imidazo[4,5-b]pyridin-2-yl]-propionamide], 2 nM; to `O=C(CCc1nc2cccnc2n1Cc1ccc(OC(F)(F)F)cc1)N[C@@H](CS)c1ccccc1` [Example 209, N—((R)-2-mercapto-1-phenyl-ethyl)-3-[3-(4-trifluoromethoxy-benzyl)-3H-imidazo[4,5-b]pyridin-2-yl]-propionamide], 3 nM.
The same measure, in the same setting: to `COc1ccc(Cn2c(CCC(=O)N[C@@H](C)c3ccc(Cl)cc3)nc3cccnc32)cc1F` [Example 24, N-[(S)-1-(4-Chloro-phenyl)-ethyl]-3-[3-(3-fluoro-4-methoxy-benzyl)-3H-imidazo[4,5-b]pyridin-2-yl]-propionamide] belongs 4 nM.
